Columns and labels:
[1] = biological target: Gamma-aminobutyric acid receptor subunit alpha-6/beta-3/gamma-2 (Rattus norvegicus, UniProt P18508+P30191+P63079); assay: (§1) Positive allosteric modulation of rat recombinant GABAA alpha6beta3alpha6-gamma2beta3 receptor expressed in Xenopus laevis oocytes assessed as increase in GABA-induced current amplitude at -80 mV holding potential under more potent phase in presence of GABA EC1 to 1.5 by two-electrode voltage-clamp assay; type: cell-based, Oocyte
Gamma-aminobutyric acid receptor subunit alpha-6/beta-3/gamma-2, sequence (P18508 whole entry): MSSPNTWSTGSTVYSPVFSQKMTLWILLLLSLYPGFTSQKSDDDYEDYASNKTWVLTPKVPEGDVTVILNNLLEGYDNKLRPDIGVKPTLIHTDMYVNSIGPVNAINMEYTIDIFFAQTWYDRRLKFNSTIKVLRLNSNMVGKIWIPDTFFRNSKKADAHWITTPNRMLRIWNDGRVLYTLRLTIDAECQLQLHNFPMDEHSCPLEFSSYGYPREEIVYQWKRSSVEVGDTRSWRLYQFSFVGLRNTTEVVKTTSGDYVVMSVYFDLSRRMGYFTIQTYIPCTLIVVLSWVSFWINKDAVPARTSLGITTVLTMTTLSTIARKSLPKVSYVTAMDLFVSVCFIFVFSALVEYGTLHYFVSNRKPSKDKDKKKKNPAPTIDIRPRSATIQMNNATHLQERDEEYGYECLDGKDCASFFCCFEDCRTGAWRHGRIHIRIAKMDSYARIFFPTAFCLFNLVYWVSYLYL
Gamma-aminobutyric acid receptor subunit alpha-6/beta-3/gamma-2, sequence (P30191 whole entry): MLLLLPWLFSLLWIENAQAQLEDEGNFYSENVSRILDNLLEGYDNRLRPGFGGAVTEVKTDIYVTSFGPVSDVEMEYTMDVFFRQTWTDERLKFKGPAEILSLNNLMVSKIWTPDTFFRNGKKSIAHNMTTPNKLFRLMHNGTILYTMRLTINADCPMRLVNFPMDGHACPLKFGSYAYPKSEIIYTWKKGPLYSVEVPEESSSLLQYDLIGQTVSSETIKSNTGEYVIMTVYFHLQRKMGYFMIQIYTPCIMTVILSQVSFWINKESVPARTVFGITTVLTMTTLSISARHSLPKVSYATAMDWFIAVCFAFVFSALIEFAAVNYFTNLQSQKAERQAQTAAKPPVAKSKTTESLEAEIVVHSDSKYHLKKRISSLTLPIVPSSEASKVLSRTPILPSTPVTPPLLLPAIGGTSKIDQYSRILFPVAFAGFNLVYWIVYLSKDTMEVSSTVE
Gamma-aminobutyric acid receptor subunit alpha-6/beta-3/gamma-2, sequence (P63079 whole entry): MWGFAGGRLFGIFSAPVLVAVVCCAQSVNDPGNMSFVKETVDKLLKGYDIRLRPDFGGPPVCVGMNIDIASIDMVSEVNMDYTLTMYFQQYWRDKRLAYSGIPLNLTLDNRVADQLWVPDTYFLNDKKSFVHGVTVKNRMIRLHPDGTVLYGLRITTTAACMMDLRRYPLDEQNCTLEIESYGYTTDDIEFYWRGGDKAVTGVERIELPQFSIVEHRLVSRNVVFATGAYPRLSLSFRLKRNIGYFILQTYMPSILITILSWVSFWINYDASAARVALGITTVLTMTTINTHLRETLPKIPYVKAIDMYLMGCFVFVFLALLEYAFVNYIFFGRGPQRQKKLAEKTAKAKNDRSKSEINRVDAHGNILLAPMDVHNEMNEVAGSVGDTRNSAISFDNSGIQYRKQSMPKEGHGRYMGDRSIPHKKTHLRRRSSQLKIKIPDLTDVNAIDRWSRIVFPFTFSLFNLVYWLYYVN

[2] = biological target: T1, Gamma-aminobutyric acid receptor subunit alpha-6/beta-3/gamma-2 (Rattus norvegicus) (UniProt P18508+P30191+P63079); assay: Positive allosteric modulation of rat recombinant GABAA alpha6beta3alpha6-gamma2beta3 receptor expressed in Xenopus laevis oocytes assessed as maximal current at -80 mV holding potential under more potent phase in presence of GABA EC1 to 1.5 by two-electrode voltage-clamp assay relative to control; type: cell-based; conditions: Oocyte, filed as positive allosteric modulator
[3] = biological target: T2, Gamma-aminobutyric acid receptor subunit alpha-1/alpha-6/beta-3/gamma-2 (Rattus norvegicus, UniProt P18508+P30191+P62813+P63079); assay: as §1, with “gamma2beta3alpha1-beta3alpha6” for “alpha6beta3alpha6-gamma2beta3”; type: cell-based, Oocyte
T2 sequence (P18508 whole entry): as the sequence (P18508 whole entry) above
T2 sequence (P30191 whole entry): as the sequence (P30191 whole entry) above
T2 sequence (P62813 whole entry): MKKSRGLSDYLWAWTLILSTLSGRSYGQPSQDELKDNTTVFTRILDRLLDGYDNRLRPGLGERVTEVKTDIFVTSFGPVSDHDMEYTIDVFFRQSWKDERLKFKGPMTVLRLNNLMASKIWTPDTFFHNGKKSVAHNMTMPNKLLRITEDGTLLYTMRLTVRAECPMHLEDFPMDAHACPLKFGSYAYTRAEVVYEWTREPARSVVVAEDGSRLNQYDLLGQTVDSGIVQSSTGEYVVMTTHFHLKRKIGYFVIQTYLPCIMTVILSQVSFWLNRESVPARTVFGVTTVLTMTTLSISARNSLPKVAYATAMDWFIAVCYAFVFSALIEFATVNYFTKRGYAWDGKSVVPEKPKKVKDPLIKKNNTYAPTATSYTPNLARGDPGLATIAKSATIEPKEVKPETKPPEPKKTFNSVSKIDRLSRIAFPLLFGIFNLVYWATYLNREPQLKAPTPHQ
T2 sequence (P63079 whole entry): as the sequence (P63079 whole entry) above

[4] = biological target: T2, Gamma-aminobutyric acid receptor subunit alpha-1/alpha-6/beta-3/gamma-2; assay: as §1, with “gamma2beta3alpha1-beta3alpha6” for “alpha6beta3alpha6-gamma2beta3”, “less” for “more”; type: cell-based, Oocyte
[5] = biological target: T3, Gamma-aminobutyric acid receptor subunit alpha-1/beta-3/gamma-2 (Rattus norvegicus) (UniProt P18508+P62813+P63079); assay: Positive allosteric modulation of rat recombinant GABAA alpha1beta3gamma2 receptor expressed in Xenopus laevis oocytes assessed as maximal current at -80 mV holding potential under less potent phase in presence of GABA EC1 to 1.5 by two-electrode voltage-clamp assay relative to control; type: cell-based; conditions: Oocyte, filed as positive allosteric modulator
[6] = biological target: T1, Gamma-aminobutyric acid receptor subunit alpha-6/beta-3/gamma-2 (Rattus norvegicus); assay: Positive allosteric modulation of rat recombinant GABAA alpha6beta3alpha6-gamma2beta3 receptor expressed in Xenopus laevis oocytes assessed as maximal efficacy at -80 mV holding potential at 3 nM in presence of GABA EC1 to 1.5 by two-electrode voltage-clamp assay; type: cell-based; conditions: Oocyte
[7] = biological target: T1, Gamma-aminobutyric acid receptor subunit alpha-6/beta-3/gamma-2 (Rattus norvegicus); assay: Positive allosteric modulation of rat recombinant GABAA alpha6beta3alpha6-gamma2beta3 receptor expressed in Xenopus laevis oocytes assessed as maximal efficacy at -80 mV holding potential at 10 nM in presence of GABA EC1 to 1.5 by two-electrode voltage-clamp assay; type: cell-based; conditions: Oocyte
[8] = biological target: T1, Gamma-aminobutyric acid receptor subunit alpha-6/beta-3/gamma-2 (Rattus norvegicus); assay: Positive allosteric modulation of rat recombinant GABAA alpha6beta3alpha6-gamma2beta3 receptor expressed in Xenopus laevis oocytes assessed as maximal efficacy at -80 mV holding potential at 30 nM in presence of GABA EC1 to 1.5 by two-electrode voltage-clamp assay; type: cell-based; conditions: Oocyte, filed as positive allosteric modulator
[9] = biological target: T3, Gamma-aminobutyric acid receptor subunit alpha-1/beta-3/gamma-2 (Rattus norvegicus); assay: Positive allosteric modulation of rat recombinant GABAA alpha1beta3alpha1-gamma2beta3 receptor expressed in Xenopus laevis oocytes assessed as maximal efficacy at -80 mV holding potential at 300 nM in presence of GABA EC1 to 1.5 by two-electrode voltage-clamp assay; type: cell-based; conditions: Oocyte
[10] = biological target: T3, Gamma-aminobutyric acid receptor subunit alpha-1/beta-3/gamma-2 (Rattus norvegicus); assay: Positive allosteric modulation of rat recombinant GABAA alpha1beta3alpha1-gamma2beta3 receptor expressed in Xenopus laevis oocytes assessed as maximal efficacy at -80 mV holding potential at 1 uM in presence of GABA EC1 to 1.5 by two-electrode voltage-clamp assay; type: cell-based; conditions: Oocyte
[11] = biological target: T3, Gamma-aminobutyric acid receptor subunit alpha-1/beta-3/gamma-2 (Rattus norvegicus); assay: Positive allosteric modulation of rat recombinant GABAA alpha1beta3alpha1-gamma2beta3 receptor expressed in Xenopus laevis oocytes assessed as maximal efficacy at -80 mV holding potential at 3 uM in presence of GABA EC1 to 1.5 by two-electrode voltage-clamp assay; type: cell-based; conditions: Oocyte, filed as positive allosteric modulator
[12] = biological target: T3, Gamma-aminobutyric acid receptor subunit alpha-1/beta-3/gamma-2 (Rattus norvegicus); assay: Positive allosteric modulation of rat recombinant GABAA alpha1beta3gamma2 receptor expressed in Xenopus laevis oocytes assessed as maximal efficacy at -80 mV holding potential at 100 nM in presence of GABA EC1 to 1.5 by two-electrode voltage-clamp assay; type: cell-based; conditions: Oocyte
[13] = biological target: T3, Gamma-aminobutyric acid receptor subunit alpha-1/beta-3/gamma-2 (Rattus norvegicus); assay: Positive allosteric modulation of rat recombinant GABAA alpha1beta3gamma2 receptor expressed in Xenopus laevis oocytes assessed as maximal efficacy at -80 mV holding potential at 10 uM in presence of GABA EC1 to 1.5 by two-electrode voltage-clamp assay; type: cell-based; conditions: Oocyte, filed as positive allosteric modulator
[14] = biological target: T4, Gamma-aminobutyric acid receptor subunit alpha-1/alpha-6/beta-3/gamma-2 (Rattus norvegicus) (UniProt P18508+P30191+P62813+P63079); assay: Positive allosteric modulation of rat recombinant GABAA gamma2beta3alpha1-beta3alpha6 receptor expressed in Xenopus laevis oocytes assessed as maximal efficacy at -80 mV holding potential at 3 nM in presence of GABA EC1 to 1.5 by two-electrode voltage-clamp assay; type: cell-based; conditions: Oocyte
[15] = biological target: T4, Gamma-aminobutyric acid receptor subunit alpha-1/alpha-6/beta-3/gamma-2 (Rattus norvegicus); assay: Positive allosteric modulation of rat recombinant GABAA gamma2beta3alpha1-beta3alpha6 receptor expressed in Xenopus laevis oocytes assessed as maximal efficacy at -80 mV holding potential at 30 nM in presence of GABA EC1 to 1.5 by two-electrode voltage-clamp assay; type: cell-based; conditions: Oocyte
[16] = biological target: T4, Gamma-aminobutyric acid receptor subunit alpha-1/alpha-6/beta-3/gamma-2 (Rattus norvegicus); assay: Positive allosteric modulation of rat recombinant GABAA gamma2beta3alpha1-beta3alpha6 receptor expressed in Xenopus laevis oocytes assessed as maximal efficacy at -80 mV holding potential at 10 uM in presence of GABA EC1 to 1.5 by two-electrode voltage-clamp assay; type: cell-based; conditions: Oocyte, filed as positive allosteric modulator
[17] = biological target: T4, Gamma-aminobutyric acid receptor subunit alpha-1/alpha-6/beta-3/gamma-2 (Rattus norvegicus); assay: Positive allosteric modulation of rat recombinant GABAA gamma2beta3alpha1-beta3alpha6 receptor expressed in Xenopus laevis oocytes assessed as maximal efficacy at -80 mV holding potential at 30 uM in presence of GABA EC1 to 1.5 by two-electrode voltage-clamp assay; type: cell-based; conditions: Oocyte, filed as positive allosteric modulator
[18] = biological target: T1, Gamma-aminobutyric acid receptor subunit alpha-6/beta-3/gamma-2 (Rattus norvegicus); assay: Positive allosteric modulation of rat recombinant GABAA alpha6beta3gamma2 receptor expressed in Xenopus laevis oocytes assessed as maximal efficacy at -80 mV holding potential at 3 nM in presence of GABA EC1 to 1.5 by two-electrode voltage-clamp assay; type: cell-based; conditions: Oocyte
[19] = biological target: T1, Gamma-aminobutyric acid receptor subunit alpha-6/beta-3/gamma-2 (Rattus norvegicus); assay: Positive allosteric modulation of rat recombinant GABAA alpha6beta3gamma2 receptor expressed in Xenopus laevis oocytes assessed as maximal efficacy at -80 mV holding potential at 10 nM in presence of GABA EC1 to 1.5 by two-electrode voltage-clamp assay; type: cell-based; conditions: Oocyte
[20] = biological target: T1, Gamma-aminobutyric acid receptor subunit alpha-6/beta-3/gamma-2 (Rattus norvegicus); assay: Positive allosteric modulation of rat recombinant GABAA alpha6beta3gamma2 receptor expressed in Xenopus laevis oocytes assessed as maximal efficacy at -80 mV holding potential at 300 nM in presence of GABA EC1 to 1.5 by two-electrode voltage-clamp assay; type: cell-based; conditions: Oocyte, filed as positive allosteric modulator
[21] = biological target: T1, Gamma-aminobutyric acid receptor subunit alpha-6/beta-3/gamma-2 (Rattus norvegicus); assay: Positive allosteric modulation of rat recombinant GABAA alpha6beta3gamma2 receptor expressed in Xenopus laevis oocytes assessed as maximal efficacy at -80 mV holding potential at 1 uM in presence of GABA EC1 to 1.5 by two-electrode voltage-clamp assay; type: cell-based; conditions: Oocyte, filed as positive allosteric modulator
[22] = biological target: T1, Gamma-aminobutyric acid receptor subunit alpha-6/beta-3/gamma-2 (Rattus norvegicus); assay: Positive allosteric modulation of rat recombinant GABAA alpha6beta3gamma2 receptor expressed in Xenopus laevis oocytes assessed as maximal efficacy at -80 mV holding potential at 30 uM in presence of GABA EC1 to 1.5 by two-electrode voltage-clamp assay; type: cell-based; conditions: Oocyte, filed as positive allosteric modulator
[23] = biological target: T4, Gamma-aminobutyric acid receptor subunit alpha-1/alpha-6/beta-3/gamma-2 (Rattus norvegicus); assay: Positive allosteric modulation of rat recombinant GABAA alpha6beta3alpha1-gamma2beta3 receptor expressed in Xenopus laevis oocytes assessed as maximal efficacy at -80 mV holding potential at 100 nM in presence of GABA EC1 to 1.5 by two-electrode voltage-clamp assay; type: cell-based; conditions: Oocyte
[24] = biological target: T4, Gamma-aminobutyric acid receptor subunit alpha-1/alpha-6/beta-3/gamma-2 (Rattus norvegicus); assay: Positive allosteric modulation of rat recombinant GABAA alpha6beta3alpha1-gamma2beta3 receptor expressed in Xenopus laevis oocytes assessed as maximal efficacy at -80 mV holding potential at 30 uM in presence of GABA EC1 to 1.5 by two-electrode voltage-clamp assay; type: cell-based; conditions: Oocyte, filed as positive allosteric modulator

With `COc1ccc(-n2nc3c4ccc(Br)cc4[nH]cc-3c2=O)cc1` the EC50 [1] was 9 nM, the %max [2] was 82% and the EC50 [3] was 4 nM. It also gave an EC50 [4] of 36 µM, a %max [5] of 132% and an Efficacy [6] of 19%. The Efficacy [7] was 33%, the Efficacy [8] was 65% and the Efficacy [9] was 17%. The Efficacy [10] was 34%, the Efficacy [11] was 95% and the Efficacy [12] was 5%. It also gave an Efficacy [13] of 84%, an Efficacy [14] of 16% and an Efficacy [15] of 31%. It also gave an Efficacy [16] of 186%, an Efficacy [17] of 210% and an Efficacy [18] of 23%. For the same compound, the Efficacy [19] was 24%, the Efficacy [20] was 121% and the Efficacy [21] was 185%. The Efficacy [22] was 595%, the Efficacy [23] was 18% and the Efficacy [24] was 838%.
